Converted amounts (≈) assume the structure as drawn.
Experiments:
gram-positive bacteria = experiment: Antibacterial (growth-inhibitory) activity, gram-positive bacteria; format: cell-based; conditions: in words
Description: (§1) Calcd.: C:44.91, H:4.47, N:20.75, Found: C:44.78, H:4.51, N:20.89, Molecular formula: C10 H12 N4 O5 Molecular weight: 268. 2'-Deoxyoxanosine in accordance with the present invention had the following antibacterial spectrum on 0.5% peptone agar.

[1] = Stability under basic conditions; format: physicochemical; conditions: in words
Serratia marcescens = experiment: Antibacterial spectrum (MIC) on 0.5% peptone agar; format: cell-based
Description: as §1
(§2) Antibacterial spectrum of 2'-deoxyoxanosine

[2] = system: Shigella dysenteriae JS11910; experiment: Antibacterial spectrum (MIC) on 0.5% peptone agar; format: cell-based
Description: as §1, §2

Sarcina luteus PCI1001 = experiment: Antibacterial spectrum (MIC) on 0.5% peptone agar; format: cell-based
Description: as §1, §2

Salmonella typhi T-63 = experiment: Antibacterial spectrum (MIC) on 0.5% peptone agar; format: cell-based; conditions: Salmonella enterica
Description: as §1, §2

[3] = system: Proteus mirabilis IFM OM-9; experiment: Antibacterial spectrum (MIC) on 0.5% peptone agar; format: cell-based; conditions: IFMOM9
Description: as §1, §2

[4] = system: Klebsiella pneumoniae PCI602; experiment: Antibacterial spectrum (MIC) on 0.5% peptone agar; format: cell-based
Description: as §1, §2

Candida albicans 3147 = experiment: Antibacterial spectrum (MIC) on 0.5% peptone agar; format: cell-based
Description: as §1, §2

[5] = system: Staphylococcus aureus Simth; experiment: Antibacterial spectrum (MIC) on 0.5% peptone agar; format: cell-based
Description: as §1, §2

[6] = system: Pseudomonas aeruginosa A3; experiment: Antibacterial spectrum (MIC) on 0.5% peptone agar; format: cell-based
Description: as §1, §2

Proteus rettgeri GN311 = experiment: Antibacterial spectrum (MIC) on 0.5% peptone agar; format: cell-based; conditions: Providencia rettgeri
Description: as §1, §2

[7] = system: Staphylococcus aureus FDA209P; experiment: Antibacterial spectrum (MIC) on 0.5% peptone agar; format: cell-based
Description: as §1, §2

[8] = system: Shigella flexneri 4bJS11811; experiment: Antibacterial spectrum (MIC) on 0.5% peptone agar; format: cell-based
Description: as §1, §2

Proteus vulgaris OX19 = experiment: Antibacterial spectrum (MIC) on 0.5% peptone agar; format: cell-based
Description: as §1, §2

Bacillus subtilis PCI219 = experiment: Antibacterial spectrum (MIC) on 0.5% peptone agar; format: cell-based
Description: as §1, §2

Microcuccus flavus FDA16 = experiment: Antibacterial spectrum (MIC) on 0.5% peptone agar; format: cell-based
Description: as §1, §2

Mycobacterium 607 = experiment: Antibacterial spectrum (MIC) on 0.5% peptone agar; format: cell-based
Description: as §1, §2

[9] = system: Bacillus subtilis NRRLB-558; experiment: Antibacterial spectrum (MIC) on 0.5% peptone agar; format: cell-based; conditions: NRRLB558
Description: as §1, §2

Proteus rettgeri GN466 = experiment: Antibacterial spectrum (MIC) on 0.5% peptone agar; format: cell-based; conditions: Providencia rettgeri
Description: as §1, §2

Escherichia coli NIHJ = experiment: Antibacterial spectrum (MIC) on 0.5% peptone agar; format: cell-based
Description: as §1, §2

[10] = system: Salmonella enteritidis 1891; experiment: Antibacterial spectrum (MIC) on 0.5% peptone agar; format: cell-based; conditions: Salmonella enterica
Description: as §1, §2

[11] = system: Corynebacterium bovis 1810; experiment: Antibacterial spectrum (MIC) on 0.5% peptone agar; format: cell-based
Description: as §1, §2

Escherichia coli ML1628 = experiment: Antibacterial spectrum (MIC) on 0.5% peptone agar; format: cell-based; conditions: Escherichia coli ML1628 (multiple resistant strain)
Description: as §1, §2

Escherichia coli K-12 = experiment: Antibacterial spectrum (MIC) on 0.5% peptone agar; format: cell-based; conditions: K12
Description: as §1, §2

Shigella sonnei JS11746 = experiment: Antibacterial spectrum (MIC) on 0.5% peptone agar; format: cell-based
Description: as §1, §2

leukemia L-1210 cells = experiment: Cytotoxicity, growth inhibition of leukemia L-1210 cells; format: cell-based
[12] = Acute toxicity (LD50) in mice; format: in vivo; conditions: mouse, in vivo, iv
mice = experiment: Acute toxicity (LD50) in mice; format: in vivo; conditions: i.v., in words
gram-negative bacteria = experiment: Antibacterial (growth-inhibitory) activity, gram-negative bacteria; format: cell-based; conditions: in words
Description: as §1

## Nc1nc2c(ncn2[C@H]2C[C@H](O)[C@@H](CO)O2)c(=O)o1 [2'-deoxyoxanosine]
gram-positive bacteria
  growth-inhibitory activity: did not show this activity against gram-positive bacteria
[1]
  stability: relatively unstable under basic conditions
Serratia marcescens
  MIC: > 100 µg/mL
[2]
  MIC: 1.56 µg/mL (≈ 5.82 µM)
Sarcina luteus PCI1001
  MIC: > 100 µg/mL
Salmonella typhi T-63
  MIC: > 100 µg/mL
[3]
  MIC: 6.25 µg/mL (≈ 23.3 µM)
[4]
  MIC: > 100 µg/mL
Candida albicans 3147
  MIC: > 100 µg/mL
[5]
  MIC: > 100 µg/mL
[6]
  MIC: > 100 µg/mL
Proteus rettgeri GN311
  MIC: 12.5 µg/mL (≈ 46.6 µM)
[7]
  MIC: > 100 µg/mL
[8]
  MIC: 1.56 µg/mL (≈ 5.82 µM)
Proteus vulgaris OX19
  MIC: < 0.2 µg/mL
Bacillus subtilis PCI219
  MIC: > 100 µg/mL
Microcuccus flavus FDA16
  MIC: > 100 µg/mL
Mycobacterium 607
  MIC: > 100 µg/mL
[9]
  MIC: > 100 µg/mL
Proteus rettgeri GN466
  MIC: 25 µg/mL (≈ 93.2 µM)
Escherichia coli NIHJ
  MIC: 12.5 µg/mL (≈ 46.6 µM)
[10]
  MIC: > 100 µg/mL
[11]
  MIC: > 100 µg/mL
Escherichia coli ML1628
  MIC: 3.12 µg/mL (≈ 11.6 µM)
Escherichia coli K-12
  MIC: 0.78 µg/mL (≈ 2.91 µM)
Shigella sonnei JS11746
  MIC: 0.78 µg/mL (≈ 2.91 µM)
Leukemia L-1210 cells; Mus musculus, L1210, read-out: IC50, the concentration inhibiting growth in 50% of leukemia L-1210 cells
  IC50: 0.15 µg/mL (≈ 0.559 µM)
Leukemia L-1210 cells; in words
  inhibition of growth of leukemia L-1210 cells: exhibited the action to inhibit the growth of leukemia L-1210 cells
[12]
  LD50: 200 mg/kg
mice
  acute toxicity compared with known antibiotics similar in structure to nucleic acids: lower toxicity than that of various known antibiotics similar in structure to nucleic acids
gram-negative bacteria
  antibacterial / growth-inhibitory activity: relatively high growth-inhibitory activity
gram-negative bacteria; listed as 2'-Deoxyoxanosine
  antibacterial / growth-inhibitory activity: excellent antibacterial activity against gram-negative bacteria

Source: patent US4530998A, “2'-Deoxyoxanosine” (Zaidan Hojin Biseibutsu Kagaku KenkyuKai, priority 1983, dated 1985)
